Data reported in PubChem BioAssay (NCI).
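Method: 48-hour compound exposure of cells in 96-well plates, five concentrations, linear interpolation of endpoints. Here, GI50 denotes the concentration required for 50% inhibition of growth. TGI marks complete inhibition of growth.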

What was measured:
Test in all cases: NCI-60 cell line screen, 48 h
A498 renal = tested on: A498 renal
SNB-19 CNS = tested on: SNB-19 CNS
786-0 renal = tested on: 786-0 renal
SF-268 CNS = tested on: SF-268 CNS
UACC-62 melanoma = tested on: UACC-62 melanoma
UACC-257 melanoma = tested on: UACC-257 melanoma
HOP-62 NSCLC = tested on: HOP-62 NSCLC
SR leukemia = tested on: SR leukemia
SK-MEL-5 melanoma = tested on: SK-MEL-5 melanoma
EKVX NSCLC = tested on: EKVX NSCLC
OVCAR-8 ovarian = tested on: OVCAR-8 ovarian
TK-10 renal = tested on: TK-10 renal
BT-549 breast = tested on: BT-549 breast
RPMI-8226 leukemia = tested on: RPMI-8226 leukemia
CCRF-CEM leukemia = tested on: CCRF-CEM leukemia
SW-620 colon = tested on: SW-620 colon
HOP-92 NSCLC = tested on: HOP-92 NSCLC
OVCAR-4 ovarian = tested on: OVCAR-4 ovarian
MOLT-4 leukemia = tested on: MOLT-4 leukemia
LOX IMVI melanoma = tested on: LOX IMVI melanoma
HT29 colon = tested on: HT29 colon
SK-OV-3 ovarian = tested on: SK-OV-3 ovarian
RXF 393 renal = tested on: RXF 393 renal
PC-3 prostate = tested on: PC-3 prostate
SK-MEL-2 melanoma = tested on: SK-MEL-2 melanoma
K-562 leukemia = tested on: K-562 leukemia
MCF7 breast = tested on: MCF7 breast
OVCAR-3 ovarian = tested on: OVCAR-3 ovarian
HCT-116 colon = tested on: HCT-116 colon

SMILES: Cn1ccnc1C(=O)/C=C/c1ccc(C(=O)Nc2ccc(F)cc2)cc1
- GI50 (A498 renal): 1.05 µM
- TGI (A498 renal): 3.53 µM
- GI50 (SNB-19 CNS): 1.36 µM
- TGI (SNB-19 CNS): 6.31 µM
- GI50 (786-0 renal): 1.14 µM
- TGI (786-0 renal): 3.14 µM
- GI50 (SF-268 CNS): 1.91 µM
- TGI (SF-268 CNS): > 50 µM
- GI50 (UACC-62 melanoma): 1.37 µM
- TGI (UACC-62 melanoma): 4.86 µM
- GI50 (UACC-257 melanoma): 3.14 µM
- TGI (UACC-257 melanoma): > 50 µM
- GI50 (HOP-62 NSCLC): 1.38 µM
- TGI (HOP-62 NSCLC): > 16.4 µM
- GI50 (SR leukemia): 0.171 µM
- TGI (SR leukemia): 3.11 µM
- GI50 (SK-MEL-5 melanoma): 1.49 µM
- TGI (SK-MEL-5 melanoma): 4.63 µM
- GI50 (EKVX NSCLC): 2.2 µM
- TGI (EKVX NSCLC): 20.8 µM
- GI50 (OVCAR-8 ovarian): 1.49 µM
- TGI (OVCAR-8 ovarian): > 50 µM
- GI50 (TK-10 renal): 1.51 µM
- TGI (TK-10 renal): 7.49 µM
- GI50 (BT-549 breast): 0.667 µM
- TGI (BT-549 breast): 4.22 µM
- GI50 (RPMI-8226 leukemia): 0.224 µM
- TGI (RPMI-8226 leukemia): 1.54 µM
- GI50 (CCRF-CEM leukemia): 0.853 µM
- TGI (CCRF-CEM leukemia): > 50 µM
- GI50 (SW-620 colon): 0.223 µM
- TGI (SW-620 colon): 7.97 µM
- GI50 (HOP-92 NSCLC): 1.31 µM
- TGI (HOP-92 NSCLC): > 41 µM
- GI50 (OVCAR-4 ovarian): 1.38 µM
- TGI (OVCAR-4 ovarian): > 50 µM
- GI50 (MOLT-4 leukemia): 1.48 µM
- TGI (MOLT-4 leukemia): > 50 µM
- GI50 (LOX IMVI melanoma): 0.52 µM
- TGI (LOX IMVI melanoma): 1.35 µM
- GI50 (HT29 colon): 0.877 µM
- TGI (HT29 colon): > 50 µM
- GI50 (SK-OV-3 ovarian): 2.55 µM
- TGI (SK-OV-3 ovarian): > 50 µM
- GI50 (RXF 393 renal): 0.78 µM
- TGI (RXF 393 renal): 1.64 µM
- GI50 (PC-3 prostate): 1.25 µM
- TGI (PC-3 prostate): > 50 µM
- GI50 (SK-MEL-2 melanoma): 5.66 µM
- TGI (SK-MEL-2 melanoma): 39.7 µM
- GI50 (K-562 leukemia): 0.163 µM
- TGI (K-562 leukemia): > 50 µM
- GI50 (MCF7 breast): 0.472 µM
- TGI (MCF7 breast): > 50 µM
- GI50 (OVCAR-3 ovarian): 0.812 µM
- TGI (OVCAR-3 ovarian): 4.28 µM
- GI50 (HCT-116 colon): 0.343 µM
- TGI (HCT-116 colon): 1.12 µM
